{
  "source": "patent US4803167A",
  "about": "“Monoclonal antidigoxtin antibodies” (The General Hospital Corporation, priority 1982, dated 1989)",
  "key": {"[1]": {"tested_on": "heterogeneous anti-digoxin antibody, Sheep Antisera", "assay": "Affinity determination, [3H]digoxin dextran-coated charcoal RIA", "assay_type": "binding", "settings": "antibody source: serum; 60 min; read-out: Affinity Constant K0 for digoxin (converted)", "description": "(§1) Antisera specific for digoxin was prepared in sheep as previously described by Curd et al, Proc. Nat. Acad. Sci. 65: 2401 (1971). High affinity antidigoxin sheep antisera was used in the clinical RIA for digoxin (described below)."}, "[2]": {"tested_on": "monoclonal anti-digoxin antibody Dig 25-54", "assay": "Specificity determination, inhibition of [3H]digoxin binding in dextran charcoal RIA", "set-up": "species or system mouse (A/J)", "settings": "inhibition of antibody binding to [3H]digoxin", "description": "(§2) The specificity of each antidigoxin antibody for related cardiac glycosides was assessed by the inhibition of binding of antibody in the dextran charcoal radioimmunoassay Smith (1972), supra. To a constant amount of H^3 -digoxin (1.5 ng) in 1 ml of buffer is added different amounts ([…]) of various cardiac glycosides: digoxin, digitoxin, digitoxigenin, digoxigenin, acetyl-strophanthidin, ouabain, deslanoside, and endogenous steroids such as chloresterol, cortisol, androsterone, 17-[beta]-estradiol, progesterone, and testosterone. After 5 minutes, a constant amount of anti-digoxin antibody was added and the assay was continued as described above. Comparison among different antidigoxin antibodies with respect to their fine specificity was made by determining the amount of cardiac glycoside required to achieve 50% inhibition relative to that required for cold digoxin.\n(§3) Specificity of monoclonal antibody binding site for related cardiac glycosides was examined by means of hapten inhibition experiments in which the binding of monoclonal antibody to H^3 -digoxin was inhibited by cold digoxin and related cardiac glycosides."}, "[3]": {"tested_on": "monoclonal anti-digoxin antibody Dig 26-40", "assay": "Specificity determination, inhibition of [3H]digoxin binding in dextran charcoal RIA", "set-up": "species or system mouse (A/J)", "settings": "inhibition of antibody binding to [3H]digoxin", "description": "as §2, §3"}, "[4]": {"tested_on": "monoclonal anti-digoxin antibody Dig 35-20", "assay": "Specificity determination, inhibition of [3H]digoxin binding in dextran charcoal RIA", "set-up": "species or system mouse (A/J)", "settings": "inhibition of antibody binding to [3H]digoxin", "description": "as §2, §3"}, "[5]": {"tested_on": "monoclonal anti-digoxin antibody Dig 26-10", "assay": "Specificity determination, inhibition of [3H]digoxin binding in dextran charcoal RIA", "set-up": "species or system mouse (A/J)", "settings": "inhibition of antibody binding to [3H]digoxin", "description": "as §2, §3"}, "[6]": {"tested_on": "monoclonal anti-digoxin antibody Dig 26-20", "assay": "Specificity determination, inhibition of [3H]digoxin binding in dextran charcoal RIA", "set-up": "species or system mouse (A/J)", "settings": "inhibition of antibody binding to [3H]digoxin", "description": "as §2, §3"}, "[7]": {"tested_on": "monoclonal anti-digoxin antibody Dig 26-30", "assay": "Specificity determination, inhibition of [3H]digoxin binding in dextran charcoal RIA", "set-up": "species or system mouse (A/J)", "settings": "inhibition of antibody binding to [3H]digoxin", "description": "as §2, §3"}, "[8]": {"tested_on": "Sheep Anti-Dig Serum (heterogeneous anti-digoxin antiserum)", "assay": "Specificity determination, inhibition of [3H]digoxin binding in dextran charcoal RIA", "settings": "inhibition of antibody binding to [3H]digoxin", "description": "as §1, §2, §3"}, "[9]": {"biological_target": "Fab fragment of monoclonal anti-digoxin antibody Dig 26-10", "assay": "Affinity determination, [3H]digoxin dextran-coated charcoal RIA", "settings": "read-out: Affinity Constant K0 for digoxin, Fab of Dig 26-10, 60 min"}, "[10]": {"biological_target": "heterogeneous anti-digoxin antibody, Pooled mouse antibody", "assay": "Affinity determination, [3H]digoxin dextran-coated charcoal RIA", "assay_type": "binding, mouse (A/J)", "settings": "antibody source: serum; 60 min; read-out: Affinity Constant K0 for digoxin (converted)", "description": "(§4) A pool of mouse antidigoxin antibody was prepared from immune sera as follows. A/J mice immunized with Dig-HSA as described above, were bled from the tail on the 3rd or 4th week following intraperitoneal injection of antigen. Their sera were pooled and the antidigoxin antibodies were purified from the sera by affinity chromatography as described below. This antibody preparation was used as a standard antidigoxin reagent in the PVC-plate RIA (described below)."}, "[11]": {"tested_on": "heterogeneous anti-digoxin antibody, Pooled mouse antisera", "assay": "Affinity determination, [3H]digoxin dextran-coated charcoal RIA", "assay_type": "binding, mouse (A/J)", "settings": "antibody source: serum; 60 min; read-out: Affinity Constant K0 for digoxin (converted)", "description": "as §4"}, "[12]": {"biological_target": "monoclonal anti-digoxin antibody Dig 26-40 (IgG2a)", "assay": "Affinity determination, [3H]digoxin dextran-coated charcoal RIA", "assay_type": "binding, mouse (A/J)", "settings": "60 min, read-out: Affinity Constant K0 for digoxin (converted)", "description": "(§5) Using the dextran coated charcoal binding method for separation of bound antibody from free H^3 -digoxin (Smith, J. Clin. Invest. 51:1583 (1972)), affinities (Ko) for monoclonal anti-digoxin antibodies were determined for antibody present in culture media and in preparations purified from ascites. Data were plotted according to a modified Sips equation (Nisonoff et al, J. Immunol. 80:417 (1958)), as described earlier herein. Typical of single component systems, a linear plot was obtained for all hybridomas analyzed. Correlation coefficients (r) varied from 0.989 to 0.999 for the monoclonal antibodies analyzed by this method. As anticipated, no significant difference was found for affinity constants determined for antibody present in culture media and in preparations following purification from ascites fluid (Table III)."}, "[13]": {"biological_target": "monoclonal anti-digoxin antibody Dig 26-10 (IgG2a)", "assay": "Affinity determination, [3H]digoxin dextran-coated charcoal RIA", "assay_type": "binding, mouse (A/J)", "settings": "for Kd: 60 min, read-out: Affinity Constant K0 for digoxin (converted)", "description": "as §5"}, "[14]": {"tested_on": "monoclonal anti-digoxin antibody Dig 25-54 (IgG1)", "assay": "Affinity determination, [3H]digoxin dextran-coated charcoal RIA", "assay_type": "binding, mouse (A/J)", "settings": "for Kd: 60 min, read-out: Affinity Constant K0 for digoxin (converted)", "description": "as §5"}, "[15]": {"biological_target": "monoclonal anti-digoxin antibody Dig 26-30 (IgG2a)", "assay": "Affinity determination, [3H]digoxin dextran-coated charcoal RIA", "assay_type": "binding, mouse (A/J)", "settings": "60 min, read-out: Affinity Constant K0 for digoxin (converted)", "description": "as §5"}, "[16]": {"biological_target": "monoclonal anti-digoxin antibody Dig 26-20 (IgG2a)", "assay": "Affinity determination, [3H]digoxin dextran-coated charcoal RIA", "assay_type": "binding, mouse (A/J)", "settings": "60 min, read-out: Affinity Constant K0 for digoxin (converted)", "description": "as §5"}, "[17]": {"tested_on": "monoclonal anti-digoxin antibody Dig 35-20 (IgG1)", "assay": "Affinity determination, [3H]digoxin dextran-coated charcoal RIA", "assay_type": "binding, mouse (A/J)", "settings": "for Kd: 60 min, read-out: Affinity Constant K0 for digoxin (converted)", "description": "as §5"}, "[18]": {"biological_target": "monoclonal anti-digoxin antibody Dig 26-10", "assay": "Affinity constant by equilibrium dialysis", "assay_type": "binding, mouse (A/J)", "settings": "confirmed by equilibrium dialysis", "text": "The affinity constant determined for Dig 26-10 (approximately 10^9 M^-1) was confirmed by equilibrium dialysis. […] The Ko determined for Dig 35-20 was also high, 1.3-3.4×10^9 M^-1."}},
  "note": "“And” between values parts separate entries of the source, which are not always exact repeats. Equal values may be shown once. Read-outs that look alike come from different tables or passages of the source.",
  "data": [
    {"molecule": "C[C@H]1O[C@@H](O[C@H]2[C@@H](O)C[C@H](O[C@H]3[C@@H](O)C[C@H](O[C@H]4CC[C@@]5(C)[C@H](CC[C@@H]6[C@@H]5C[C@@H](O)[C@]5(C)[C@@H](C7=CC(=O)OC7)CC[C@]65O)C4)O[C@@H]3C)O[C@@H]2C)C[C@H](O)[C@@H]1O", "note": "[Digoxin]", "values": [
      {"measurement": "Kd", "setting": "[1]", "value": 0.0833, "unit": "nM"},
      {"measurement": "amount of inhibitor required to give 50% inhibition relative to the amount of digoxin which gave 50% inhibition", "setting": "[2]", "value": 1.0},
      {"measurement": "amount of inhibitor required to give 50% inhibition relative to the amount of digoxin which gave 50% inhibition", "setting": "[3]", "value": 1.0},
      {"measurement": "amount of inhibitor required to give 50% inhibition relative to the amount of digoxin which gave 50% inhibition", "setting": "[4]", "value": 1.0},
      {"measurement": "amount of inhibitor required to give 50% inhibition relative to the amount of digoxin which gave 50% inhibition", "setting": "[5]", "value": 1.0},
      {"measurement": "amount of inhibitor required to give 50% inhibition relative to the amount of digoxin which gave 50% inhibition", "setting": "[6]", "value": 1.0},
      {"measurement": "amount of inhibitor required to give 50% inhibition relative to the amount of digoxin which gave 50% inhibition", "setting": "[7]", "value": 1.0},
      {"measurement": "amount of inhibitor required to give 50% inhibition relative to the amount of digoxin which gave 50% inhibition", "setting": "[8]", "value": 1.0},
      {"measurement": "Kd", "setting": "[9]", "value": "0.833 nM and 1 nM"},
      {"measurement": "Kd", "setting": "[10]", "value": 0.286, "unit": "nM"},
      {"measurement": "Kd", "setting": "[11]", "value": 0.323, "unit": "nM"},
      {"measurement": "Kd", "setting": "[12]; antibody purified from ascites", "value": 0.385, "unit": "nM"},
      {"measurement": "Kd", "setting": "[12]; antibody source: culture media", "value": 0.227, "unit": "nM"},
      {"measurement": "Kd", "setting": "[13]; antibody purified from ascites", "value": 0.213, "unit": "nM"},
      {"measurement": "Kd", "setting": "[13]; antibody source: culture media", "value": 0.118, "unit": "nM"},
      {"measurement": "Ko for digoxin, average value for the intact antibody", "setting": "[13]; intact antibody", "value": "< 5×10^9"},
      {"measurement": "Ko for digoxin", "setting": "[14]", "value": "3.5 to 5.2 ×10^8 M^-1"},
      {"measurement": "apparent affinity Ko for digoxin", "setting": "[14]", "value": "< 10^8 M^-1"},
      {"measurement": "Kd", "setting": "[14]; antibody purified from ascites", "value": 1.92, "unit": "nM"},
      {"measurement": "Kd", "setting": "[14]; antibody source: culture media", "value": 3.85, "unit": "nM"},
      {"measurement": "Kd", "setting": "[15]; antibody purified from ascites", "value": 0.172, "unit": "nM"},
      {"measurement": "Kd", "setting": "[15]; antibody source: culture media", "value": 0.256, "unit": "nM"},
      {"measurement": "Kd", "setting": "[16]; antibody purified from ascites", "value": 0.294, "unit": "nM"},
      {"measurement": "Kd", "setting": "[16]; antibody source: culture media", "value": 0.714, "unit": "nM"},
      {"measurement": "Ko for digoxin", "setting": "[17]", "value": "1.3-3.4×10^9 M^-1"},
      {"measurement": "Kd", "setting": "[17]; antibody purified from ascites", "value": 0.769, "unit": "nM"},
      {"measurement": "Kd", "setting": "[17]; antibody source: culture media", "value": 0.526, "unit": "nM"},
      {"measurement": "Kd", "setting": "[18]", "value": "~1", "unit": "nM"}
    ]}
  ]
}
